{"source": "patent US20090068290A1", "about": "“BIFEPRUNOX DOSES FOR TREATING SCHIZOPHRENIA” (priority 2006, published 2009)", "key": {"[1]": {"tested_on": "adult subjects with schizophrenia", "experiment": "PANSS general psychopathology subscale score, Clinical Study Two", "assay_type": "in vivo, human", "conditions": "for Change from Baseline in General Psychopathology Subscale Score, Mean (SD) / Change from Baseline in General Psychopathology Subscale Score, Median / Trt Effect (bifeprunox - placebo), General Psychopathology Subscale Score / mean change (SD) from Baseline to Endpoint in PANSS general psychopathology subscale score: LOCF; for Change from Baseline in General Psychopathology Subscale Score, Mean (SD) / Change from Baseline in General Psychopathology Subscale Score, Median / Trt Effect (bifeprunox - placebo), General Psychopathology Subscale Score: ITT population; for Trt Effect (bifeprunox - placebo), General Psychopathology Subscale Score: ANCOVA; for PANSS general psychopathology subscale score, treatment effect (bifeprunox—placebo): Endpoint LOCF; for mean change (SD) from Baseline to Endpoint in PANSS general psychopathology subscale score: ITT", "description": "Rating scale assessments were performed weekly, except for week 5, to measure the change from baseline to endpoint of the PANSS total score. Other assessments included: PANSS positive symptom subscale score, PANSS negative symptom subscale score, PANSS general pschopathology subscale score, BPRS total score, BPRS psychosis score, the CGI-S score, the CGI-I score, responder rates based on the PANSS total score, and the Calgary Depression Scale for Schizophrenia (CDSS). […]\nSubjects who completed this study had the option to continue in the long-term. […] Risperidone-treated subjects were titrated from 2 mg to 6 mg daily over a three-day period and were subsequently maintained at 6 mg/day for the remainder of the treatment period. […] Blood samples were also obtained at Screening/Baseline, Week 3, and Week 6 for clinical laboratory assessments."}, "[2]": {"tested_on": "adult subjects with schizophrenia", "experiment": "PANSS general psychopathology subscale score, Clinical Study Three", "assay_type": "in vivo, human", "conditions": "LOCF, ITT population; for Trt Effect (bifeprunox - placebo), PASS General Psychopathology Subscale Score: ANCOVA", "quoted_text": "SECONDARY OBJECTIVES To assess the efficacy of bifeprunox in treating schizophrenia using the Positive Symptom sub-scale score of the PANSS, the Negative Symptom sub-scale score of the PANSS, the General Psychopathology sub-scale of the PANSS, Brief Psychiatric Rating Scale (BPRS) total score derived from the PANSS, BPRS psychosis score derived from the PANSS, the Clinical Global Impression Severity of Illness score (CGI-S), the Clinical Global Impression Improvement score (CGI-I), CGI-I responder rate, PANSS responder rate based on the PANSS total score, Calgary Depression Scale for Schizophrenia (CDSS), and Subject Satisfaction rating.\nThere were four treatment arms in this study, approximately 144 subjects per arm. […] After completing the Single-Blind Placebo Lead-in Period of at least three days, bifeprunox-treated subjects were titrated from 0.25 mg up to 20 mg/day or 30 mg/day according to a standardized titration scheme over a seven- or eight-day period, respectively. When the assigned dose was reached, subjects were maintained at that dose for the remainder of the six week treatment period. […] Subjects were hospitalized (if not already inpatients) after eligibility for study entry was verified, starting from the Screening Visit until at least 10 days after Baseline. Subjects could be hospitalized longer than 10 days if considered medically necessary by the Investigator. Rating scale assessments for efficacy and abnormal movement disorders were done weekly except for Week 5. […] Subject satisfaction with study medication was assessed at Week 6."}, "[3]": {"conditions": "Bifeprunox 30 mg, Week 6/Endpoint"}, "[4]": {"conditions": "Bifeprunox 40 mg, Week 6/Endpoint"}, "[5]": {"conditions": "Bifeprunox 20 mg, Week 6/Endpoint"}}, "data": [{"smiles": "O=c1[nH]c2cccc(N3CCN(Cc4cccc(-c5ccccc5)c4)CC3)c2o1", "note": "[Bifeprunox, 7-[4-([1,1′-biphenyl]-3-ylmethyl)-1-piperazinyl]-2(3H)-benzoxazolone]", "values": [{"measurement": "Change from Baseline in General Psychopathology Subscale Score, Mean (SD)", "setting": "[1]; Bifeprunox 30 mg, Week 1", "value": "−2.7 (6.4)"}, {"measurement": "Change from Baseline in General Psychopathology Subscale Score, Median", "setting": "[1]; Bifeprunox 30 mg, Week 1", "value": "−2"}, {"measurement": "Change from Baseline in General Psychopathology Subscale Score, Mean (SD)", "setting": "[1]; Bifeprunox 30 mg, Week 2", "value": "−4.9 (8.1)"}, {"measurement": "Change from Baseline in General Psychopathology Subscale Score, Median", "setting": "[1]; Bifeprunox 30 mg, Week 2", "value": "−4"}, {"measurement": "Change from Baseline in General Psychopathology Subscale Score, Mean (SD)", "setting": "[1]; Bifeprunox 30 mg, Week 3", "value": "−5.8 (9.2)"}, {"measurement": "Change from Baseline in General Psychopathology Subscale Score, Median", "setting": "[1]; Bifeprunox 30 mg, Week 3", "value": "−5"}, {"measurement": "Change from Baseline in General Psychopathology Subscale Score, Mean (SD)", "setting": "[1]; Bifeprunox 30 mg, Week 4", "value": "−6.1 (9.7)"}, {"measurement": "Change from Baseline in General Psychopathology Subscale Score, Median", "setting": "[1]; Bifeprunox 30 mg, Week 4", "value": "−5"}, {"measurement": "Change from Baseline in General Psychopathology Subscale Score, Mean (SD)", "setting": "[1]; [3]", "value": "−6.0 (10.2)"}, {"measurement": "Change from Baseline in General Psychopathology Subscale Score, Median", "setting": "[1]; [3]", "value": "−5"}, {"measurement": "Trt Effect (bifeprunox - placebo), General Psychopathology Subscale Score", "setting": "[1]; [3]", "value": "−2.5"}, {"measurement": "Change from Baseline in General Psychopathology Subscale Score, Mean (SD)", "setting": "[1]; Bifeprunox 40 mg, Week 1", "value": "−2.7 (5.9)"}, {"measurement": "Change from Baseline in General Psychopathology Subscale Score, Median", "setting": "[1]; Bifeprunox 40 mg, Week 1", "value": "−2"}, {"measurement": "Change from Baseline in General Psychopathology Subscale Score, Mean (SD)", "setting": "[1]; Bifeprunox 40 mg, Week 2", "value": "−3.4 (7.9)"}, {"measurement": "Change from Baseline in General Psychopathology Subscale Score, Median", "setting": "[1]; Bifeprunox 40 mg, Week 2", "value": "−3"}, {"measurement": "Change from Baseline in General Psychopathology Subscale Score, Mean (SD)", "setting": "[1]; Bifeprunox 40 mg, Week 3", "value": "−3.8 (8.8)"}, {"measurement": "Change from Baseline in General Psychopathology Subscale Score, Median", "setting": "[1]; Bifeprunox 40 mg, Week 3", "value": "−3"}, {"measurement": "Change from Baseline in General Psychopathology Subscale Score, Mean (SD)", "setting": "[1]; Bifeprunox 40 mg, Week 4", "value": "−3.4 (9.3)"}, {"measurement": "Change from Baseline in General Psychopathology Subscale Score, Median", "setting": "[1]; Bifeprunox 40 mg, Week 4", "value": "−2"}, {"measurement": "Change from Baseline in General Psychopathology Subscale Score, Mean (SD)", "setting": "[1]; [4]", "value": "−3.8 (10.1)"}, {"measurement": "Change from Baseline in General Psychopathology Subscale Score, Median", "setting": "[1]; [4]", "value": "−3"}, {"measurement": "Trt Effect (bifeprunox - placebo), General Psychopathology Subscale Score", "setting": "[1]; [4]", "value": "−0.7"}, {"measurement": "PANSS general psychopathology subscale score, treatment effect (bifeprunox—placebo)", "setting": "[1]; bifeprunox 30 mg", "value": "−2.5"}, {"measurement": "mean change (SD) from Baseline to Endpoint in PANSS general psychopathology subscale score", "setting": "[1]; bifeprunox 30 mg", "value": "−6.0 (10.2)"}, {"measurement": "PANSS general psychopathology subscale score, treatment effect (bifeprunox—placebo)", "setting": "[1]; bifeprunox 40 mg", "value": "−0.7"}, {"measurement": "mean change (SD) from Baseline to Endpoint in PANSS general psychopathology subscale score", "setting": "[1]; bifeprunox 40 mg", "value": "−3.8 (10.1)"}, {"measurement": "Change from Baseline in PASS General Psychopathology Subscale Score, Mean (SD)", "setting": "[2]; Bifeprunox 20 mg, Week 1", "value": "−2.4 (6.7)"}, {"measurement": "Change from Baseline in PASS General Psychopathology Subscale Score, Median", "setting": "[2]; Bifeprunox 20 mg, Week 1", "value": "−2"}, {"measurement": "Change from Baseline in PASS General Psychopathology Subscale Score, Mean (SD)", "setting": "[2]; Bifeprunox 20 mg, Week 2", "value": "−4.6 (8.4)"}, {"measurement": "Change from Baseline in PASS General Psychopathology Subscale Score, Median", "setting": "[2]; Bifeprunox 20 mg, Week 2", "value": "−5"}, {"measurement": "Change from Baseline in PASS General Psychopathology Subscale Score, Mean (SD)", "setting": "[2]; Bifeprunox 20 mg, Week 3", "value": "−5.6 (9.3)"}, {"measurement": "Change from Baseline in PASS General Psychopathology Subscale Score, Median", "setting": "[2]; Bifeprunox 20 mg, Week 3", "value": "−6"}, {"measurement": "Change from Baseline in PASS General Psychopathology Subscale Score, Mean (SD)", "setting": "[2]; Bifeprunox 20 mg, Week 4", "value": "−5.8 (10.1)"}, {"measurement": "Change from Baseline in PASS General Psychopathology Subscale Score, Median", "setting": "[2]; Bifeprunox 20 mg, Week 4", "value": "−7"}, {"measurement": "Change from Baseline in PASS General Psychopathology Subscale Score, Mean (SD)", "setting": "[2]; [5]", "value": "−6.1 (10.7)"}, {"measurement": "Change from Baseline in PASS General Psychopathology Subscale Score, Median", "setting": "[2]; [5]", "value": "−7"}, {"measurement": "Trt Effect (bifeprunox - placebo), PASS General Psychopathology Subscale Score", "setting": "[2]; [5]", "value": "−1.5"}, {"measurement": "Change from Baseline in PASS General Psychopathology Subscale Score, Mean (SD)", "setting": "[2]; Bifeprunox 30 mg, Week 1", "value": "−2.8 (6.3)"}, {"measurement": "Change from Baseline in PASS General Psychopathology Subscale Score, Median", "setting": "[2]; Bifeprunox 30 mg, Week 1", "value": "−3"}, {"measurement": "Change from Baseline in PASS General Psychopathology Subscale Score, Mean (SD)", "setting": "[2]; Bifeprunox 30 mg, Week 2", "value": "−3.8 (8.2)"}, {"measurement": "Change from Baseline in PASS General Psychopathology Subscale Score, Median", "setting": "[2]; Bifeprunox 30 mg, Week 2", "value": "−4"}, {"measurement": "Change from Baseline in PASS General Psychopathology Subscale Score, Mean (SD)", "setting": "[2]; Bifeprunox 30 mg, Week 3", "value": "−5.0 (9.3)"}, {"measurement": "Change from Baseline in PASS General Psychopathology Subscale Score, Median", "setting": "[2]; Bifeprunox 30 mg, Week 3", "value": "−4"}, {"measurement": "Change from Baseline in PASS General Psychopathology Subscale Score, Median", "setting": "[2]; Bifeprunox 30 mg, Week 4", "value": "−5"}, {"measurement": "Change from Baseline in PASS General Psychopathology Subscale Score, Mean (SD)", "setting": "[2]; [3]", "value": "−5.8 (10.3)"}, {"measurement": "Change from Baseline in PASS General Psychopathology Subscale Score, Median", "setting": "[2]; [3]", "value": "−6"}, {"measurement": "Trt Effect (bifeprunox - placebo), PASS General Psychopathology Subscale Score", "setting": "[2]; [3]", "value": "−0.9"}]}]}
